Counter-ions that a name gives are not always drawn.
Test system: complement level
Test: Complement Level Reduction Test
Format: in vivo
Conditions: serum of dosed guinea pigs, undiluted serum capillary tube method, compared to undosed controls

In the case of `O=C(Nc1ccc(-n2nc3ccc4cc(S(=O)(=O)O)cc(O)c4c3n2)c(S(=O)(=O)O)c1)Nc1ccc(-n2nc3ccc4cc(S(=O)(=O)O)cc(O)c4c3n2)c(S(=O)(=O)O)c1` [3,3'-Ureylenebis[6-(9-hydroxy-7-sulfo-2H-naphtho[1,2-d]triazol-2-yl)benzenesulfonic acid] tetrasodium salt], the “% Reduction Complement, In Vivo” value is reported as 42%.
